Results from ChEMBL document CHEMBL1201862, “PubChem BioAssay data set” (2004).
Calls of active or inactive are those of the source.

What was measured:
[1] = target: E3 ubiquitin-protein ligase Mdm2 (Homo sapiens, UniProt Q00987); test: MDM2-luc reporter signal enhancers, multi-concentration potency testing, MDM2 ubiquitin-protein ligase inhibitor program, whole-cell format, luminescence detection, 384-well microplate (AID 1394); type: functional;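 note: MDM2 E3 inhibitors raise luminescence so EC50 is for signal enhancement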
Beta-galactosidase [2] = target: T1, Beta-galactosidase (Escherichia coli, UniProt Q8VNN2); test: PubChem AID 485352; type: functional
[3] = Luminescence-based dose response cell-based high throughput screening assay for cytotoxic compounds using the IEC-6 intestinal epithelial cell line. [Related pubchem assays: 1858 (Summary AID.), 1825 (Counterscreen.), 1907 (Confirmation screen.)]; type: functional
[4] = target: T2, Type-1 angiotensin II receptor (Homo sapiens, UniProt P30556); test: antagonism of angiotensin II type 1 receptor – cell-based, uHTS hits, selectivity assay for APJ receptor antagonist project, dose response (AID 463214); type: functional;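 note: antagonist potency against angiotensin II stimulated AT1 response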
T2 sequence (P30556 whole entry): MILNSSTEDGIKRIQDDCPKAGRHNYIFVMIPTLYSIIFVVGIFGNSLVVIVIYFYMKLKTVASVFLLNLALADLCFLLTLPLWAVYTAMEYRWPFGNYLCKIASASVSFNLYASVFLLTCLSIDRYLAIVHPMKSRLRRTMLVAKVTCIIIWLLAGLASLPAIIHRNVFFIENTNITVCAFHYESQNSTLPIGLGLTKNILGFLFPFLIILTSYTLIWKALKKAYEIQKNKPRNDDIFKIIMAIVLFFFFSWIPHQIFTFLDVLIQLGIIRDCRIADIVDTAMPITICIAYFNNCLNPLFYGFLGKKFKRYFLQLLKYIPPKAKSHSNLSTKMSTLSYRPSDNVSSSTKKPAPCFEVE

[5] = target: T3, Kappa-type opioid receptor (Homo sapiens, UniProt P41145); type: functional
Beta-galactosidase [6] = target: T1, Beta-galactosidase; type: functional
[7] = target: T3, Kappa-type opioid receptor; type: functional; remark: listed apart in the source
[8] = HEK-293T viability loss after treatment – luminescence, T-cell screen hits, cytotoxicity control for TCR NF-kB inhibitor project, dose response (AID 489026); type: functional, cell-based;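 note: cells exposed to compound about 14 hours before the viability readout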
[9] = target: T4, Tyrosine-protein phosphatase non-receptor type 7 (Homo sapiens, UniProt P35236); type: functional
T4 sequence (P35236 whole entry): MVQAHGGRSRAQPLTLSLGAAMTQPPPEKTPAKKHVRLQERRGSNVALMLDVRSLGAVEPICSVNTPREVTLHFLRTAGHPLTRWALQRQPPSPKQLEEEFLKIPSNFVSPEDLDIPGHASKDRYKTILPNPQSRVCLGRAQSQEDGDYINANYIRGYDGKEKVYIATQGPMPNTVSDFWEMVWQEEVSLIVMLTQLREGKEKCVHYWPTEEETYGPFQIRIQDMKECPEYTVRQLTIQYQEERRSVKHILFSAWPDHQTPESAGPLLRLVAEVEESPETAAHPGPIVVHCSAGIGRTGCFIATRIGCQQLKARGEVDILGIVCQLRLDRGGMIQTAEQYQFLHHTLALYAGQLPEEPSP

[10] = target: Glyceraldehyde-3-phosphate dehydrogenase (Homo sapiens, UniProt P04406)
[11] = target: T5, Dual specificity protein phosphatase 6 (Rattus norvegicus, UniProt Q64346)
T5 sequence (Q64346 whole entry): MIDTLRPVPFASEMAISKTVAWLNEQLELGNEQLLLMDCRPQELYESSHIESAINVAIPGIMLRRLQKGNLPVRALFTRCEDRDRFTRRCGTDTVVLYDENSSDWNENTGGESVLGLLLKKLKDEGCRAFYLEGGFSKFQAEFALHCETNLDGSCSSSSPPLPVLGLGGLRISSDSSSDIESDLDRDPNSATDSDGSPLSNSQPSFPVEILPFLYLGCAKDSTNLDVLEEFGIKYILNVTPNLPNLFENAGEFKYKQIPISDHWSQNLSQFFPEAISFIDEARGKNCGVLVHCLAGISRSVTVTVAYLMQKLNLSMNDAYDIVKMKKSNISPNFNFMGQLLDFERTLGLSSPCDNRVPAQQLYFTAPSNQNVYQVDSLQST

[12] = target: T6, Dual specificity protein phosphatase 3 (Homo sapiens, UniProt P51452); test: SAR VHR1 Fluorescent Assay for In Vitro dose response studies. [Related pubchem assays (depositor defined):AID1654, AID1661, AID1878, AID1992, AID2004, AID2070, AID2085]; type: functional
[13] = target: T6, Dual specificity protein phosphatase 3; test: MOA VHR1 Fluorescent secondary assay for identification of redox-state modulating compounds. [Related pubchem assays (depositor defined):AID1654, AID1661, AID1878, AID1957]
[14] = target: T4, Tyrosine-protein phosphatase non-receptor type 7; test: redox-active compounds inhibiting HePTP phosphatase – biochemical, fluorescence, mechanism study (AID 2068); type: functional
[15] = target: T5, Dual specificity protein phosphatase 6; type: functional
[16] = target: T7, Eukaryotic translation initiation factor 4H (Homo sapiens, UniProt Q15056); test: eIF4H binding inhibition – biochemical, uHTS, fluorescence polarization, translation initiation inhibitor project, primary screen (AID 2012)
[17] = target: T8, Polyadenylate-binding protein 1 (Homo sapiens, UniProt P11940); test: blockers of PABP interaction with poly(A) – biochemical, fluorescence polarization, […] (AID 2014)
[18] = target: T7, Eukaryotic translation initiation factor 4H; test: inhibitors of translation initiation factor eIF4H – SAR follow-up (AID 435011); type: functional
[19] = target: T8, Polyadenylate-binding protein 1; test: PABP inhibition in translation initiation, SAR follow-up (AID 435018); type: functional
[20] = target: T9, Carboxy-terminal domain RNA polymerase II polypeptide A small phosphatase 1 (Homo sapiens, UniProt Q9GZU7); test: CTDSP1 inhibitors, concentration-response, biochemical, absorbance readout, ultra-high-throughput screen actives (AID 540297); type: functional
T9 sequence (Q9GZU7 whole entry): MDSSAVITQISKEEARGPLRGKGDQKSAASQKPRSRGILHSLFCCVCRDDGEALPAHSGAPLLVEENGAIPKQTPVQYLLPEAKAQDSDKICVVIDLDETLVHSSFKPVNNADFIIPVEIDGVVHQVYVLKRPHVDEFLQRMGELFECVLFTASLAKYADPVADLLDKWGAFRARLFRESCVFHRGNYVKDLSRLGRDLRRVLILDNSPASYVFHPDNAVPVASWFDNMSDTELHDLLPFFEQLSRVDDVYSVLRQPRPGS

[21] = BJeHLT cell viability loss – BJeHLT cells, dry powder, counter-screen for Ras selective lethality project, dose response (AID 493052); type: functional, cell-based; details: Homo sapiens
[22] = DRD BJ cell killing, Ras synthetic lethality – DRD BJ fibroblasts, HRASV12, dry powder, dose response (AID 493049); type: functional, cell-based
[23] = HRAS-V12 fibroblast viability reduction – cell-based, Alamar Blue, dry powder, Ras selective lethality project, primary screen (AID 493045); type: functional; details: BJeLR
[24] = BJeH cell viability loss – BJeH cells, dry powder, counter-screen for Ras selective lethality project, dose response (AID 493054); type: functional, cell-based
Mu-type opioid receptor = Mu-type opioid receptor (Homo sapiens, UniProt P35372); test: SAR Analysis of Antagonists of the MOR Receptor using an Image-Based Assay - Set 3. [Related pubchem assays (depositor defined):AID1777, AID1785, AID1786, AID1966, AID2133, AID2136, AID2284, AID2285, AID2420]; type: functional
[25] = target: T3, Kappa-type opioid receptor; test: SAR analysis of small molecule antagonists of the kappa opioid receptor via a luminescent beta-arrestin assay - Set 4. [Related pubchem assays (depositor defined):AID1777, AID1778, AID1785, AID1786, AID1966, AID2133, AID2136, AID2285]; type: functional
[26] = target: Delta-type opioid receptor (Homo sapiens, UniProt P41143); test: SAR Analysis of Antagonists of the DOR Receptor using an Image-Based Assay - Set 3. [Related pubchem assays (depositor defined):AID1777, AID1785]; type: functional;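 note: U2OS cells expressing DOR1 and beta-arrestin GFP stimulated with 100 nM SNC80; imaging of GFP-tagged beta-arrestin moving into spots after receptor activation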
[27] = target: T3, Kappa-type opioid receptor; test: SAR analysis of Antagonists of the Kappa Opioid Receptor (KOR) using an Image-Based Assay - Set 4. [Related pubchem assays (depositor defined):AID1777, AID1785]; type: functional
[28] = target: C-C chemokine receptor type 6 (Homo sapiens, UniProt P51684); test: antagonism of CCR6 beta-arrestin recruitment – cell-based, luminescent beta-arrestin readout, dose response (AID 504728); type: functional
Beta-galactosidase [29] = target: T1, Beta-galactosidase; test: detection-enzyme interference by beta-gal modulators – biochemical, E. coli enzyme, set 3, artefact control for CCR6 antagonist project, dose response (AID 504712); type: functional
[30] = target: Heat shock protein HSP 90-alpha (Homo sapiens, UniProt P07900); type: functional, organism-based
Vero = test: viability of Vero cells under compound – cytotoxicity control for flavivirus capping enzyme inhibitors (AID 588742); type: functional; details: Chlorocebus sabaeus
Genome polyprotein = Genome polyprotein (dengue virus type 2, UniProt P29990); test: flavivirus cap methylation enzyme inhibition – biochemical, confirmation dose response, primary screen (AID 588689); type: functional
[31] = viability loss in HeLa cells – cytotoxicity control for MgcRacGAP inhibitor project, dose response (AID 624300); type: functional
[32] = target: T10, Rac GTPase-activating protein 1 (Homo sapiens, UniProt Q9H0H5); test: blockers of MgcRacGAP-driven Rac1 GTP hydrolysis – biochemical, ADP Hunter fluorescence, primary and confirmatory, confirmation (AID 624330); type: functional
T10 sequence (Q9H0H5 whole entry): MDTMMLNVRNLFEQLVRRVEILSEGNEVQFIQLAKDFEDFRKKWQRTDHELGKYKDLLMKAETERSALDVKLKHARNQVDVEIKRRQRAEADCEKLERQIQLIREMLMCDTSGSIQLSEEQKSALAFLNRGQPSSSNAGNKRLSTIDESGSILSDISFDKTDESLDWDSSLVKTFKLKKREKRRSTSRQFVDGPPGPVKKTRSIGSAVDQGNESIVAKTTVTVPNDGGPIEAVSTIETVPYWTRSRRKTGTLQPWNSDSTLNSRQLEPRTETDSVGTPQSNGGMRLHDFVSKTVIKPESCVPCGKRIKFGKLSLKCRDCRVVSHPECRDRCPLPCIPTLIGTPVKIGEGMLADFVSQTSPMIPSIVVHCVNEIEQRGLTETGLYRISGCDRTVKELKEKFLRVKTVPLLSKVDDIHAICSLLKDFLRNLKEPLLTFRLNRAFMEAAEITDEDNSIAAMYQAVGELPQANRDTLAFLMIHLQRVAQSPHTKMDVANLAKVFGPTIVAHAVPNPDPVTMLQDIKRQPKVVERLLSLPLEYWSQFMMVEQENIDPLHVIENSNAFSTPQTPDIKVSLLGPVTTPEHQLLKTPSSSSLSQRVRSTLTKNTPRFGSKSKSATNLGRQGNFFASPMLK

Paired box protein Pax-8 = Paired box protein Pax-8 (Homo sapiens, UniProt Q06710); test: PAX8 transcriptional activity inhibition in RMG-I – RMG-I cells, luciferase, cherry-pick, dose response (AID 687027); type: functional, cell-based;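 note: luciferase reporter driven by Pax8 target thyroperoxidase promoter measured by SteadyGlo luminescence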
[33] = viability loss in HepG2 hepatoma cells – cell-based, cherry-picks, set 5, cytotoxicity control, dose response (AID 1053118); type: functional
[34] = viability loss in HEK293 kidney cells – cell-based, cherry-picks, set 5, cytotoxicity control, dose response (AID 1053117); type: functional
[35] = viability loss in A549 lung cancer cells – cell-based, cherry-picks, […], cytotoxicity control, dose response (AID 1053119); type: functional
[36] = general cell-killing toxicity readout – plate reader, dry powder samples, cytotoxicity control for PAX8 inhibitor project, dose response (AID 743021); type: functional, cell-based
[37] = blockers of FN fibrillogenesis by fibroblasts – AH1F cells, Alexa488-FN fluorescence, cherry-picks, dose response (AID 1035475); type: functional, cell-based
Protein Tat = Protein Tat (Human immunodeficiency virus type 1 group M subtype B (isolate HXB2)(HIV-1), UniProt P04608); type: functional;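 note: tat binding to TAR RNA read out by fluorescence polarization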
[38] = viability loss in THP-1 monocytes – THP-1 cells, cytotoxicity control for Vif-APOBEC3G degradation inhibitor project, dose response (AID 1117359); type: functional; details: THP-1

T1 sequence (Q8VNN2 whole entry): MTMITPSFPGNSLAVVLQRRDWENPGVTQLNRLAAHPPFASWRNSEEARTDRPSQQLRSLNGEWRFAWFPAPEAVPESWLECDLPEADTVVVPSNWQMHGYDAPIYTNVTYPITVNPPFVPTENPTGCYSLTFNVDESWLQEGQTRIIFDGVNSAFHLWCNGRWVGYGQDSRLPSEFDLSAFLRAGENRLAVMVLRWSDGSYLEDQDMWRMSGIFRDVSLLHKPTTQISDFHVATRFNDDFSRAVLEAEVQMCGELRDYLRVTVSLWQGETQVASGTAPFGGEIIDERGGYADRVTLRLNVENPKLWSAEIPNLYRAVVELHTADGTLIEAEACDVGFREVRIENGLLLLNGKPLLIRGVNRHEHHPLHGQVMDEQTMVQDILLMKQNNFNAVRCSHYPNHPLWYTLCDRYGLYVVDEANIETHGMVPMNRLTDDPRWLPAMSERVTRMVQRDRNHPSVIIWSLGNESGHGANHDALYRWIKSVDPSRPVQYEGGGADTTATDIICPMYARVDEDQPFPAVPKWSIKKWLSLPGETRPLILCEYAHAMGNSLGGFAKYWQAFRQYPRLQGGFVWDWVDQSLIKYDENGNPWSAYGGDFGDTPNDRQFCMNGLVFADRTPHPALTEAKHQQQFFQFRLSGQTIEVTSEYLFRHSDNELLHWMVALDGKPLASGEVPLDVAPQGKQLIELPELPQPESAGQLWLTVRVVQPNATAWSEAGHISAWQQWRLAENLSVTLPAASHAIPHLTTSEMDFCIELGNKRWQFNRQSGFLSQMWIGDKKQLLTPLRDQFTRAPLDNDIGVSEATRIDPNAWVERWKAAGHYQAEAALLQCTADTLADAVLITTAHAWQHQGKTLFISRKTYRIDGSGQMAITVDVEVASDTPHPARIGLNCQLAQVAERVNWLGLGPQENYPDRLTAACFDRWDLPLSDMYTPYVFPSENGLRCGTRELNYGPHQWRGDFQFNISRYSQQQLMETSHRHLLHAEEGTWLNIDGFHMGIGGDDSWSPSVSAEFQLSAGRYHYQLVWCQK
T3 sequence (P41145 whole entry): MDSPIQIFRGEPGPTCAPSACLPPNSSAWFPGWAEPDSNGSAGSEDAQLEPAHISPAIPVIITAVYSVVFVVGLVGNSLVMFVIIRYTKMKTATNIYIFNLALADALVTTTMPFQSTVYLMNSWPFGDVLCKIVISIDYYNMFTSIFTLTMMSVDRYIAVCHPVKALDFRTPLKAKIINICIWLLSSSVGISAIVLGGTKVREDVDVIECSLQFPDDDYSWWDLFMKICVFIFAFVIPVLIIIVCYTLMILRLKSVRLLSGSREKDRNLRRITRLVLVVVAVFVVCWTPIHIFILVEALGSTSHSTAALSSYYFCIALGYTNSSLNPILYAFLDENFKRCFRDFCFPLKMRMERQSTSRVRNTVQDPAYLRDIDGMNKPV
T8 sequence (P11940 whole entry): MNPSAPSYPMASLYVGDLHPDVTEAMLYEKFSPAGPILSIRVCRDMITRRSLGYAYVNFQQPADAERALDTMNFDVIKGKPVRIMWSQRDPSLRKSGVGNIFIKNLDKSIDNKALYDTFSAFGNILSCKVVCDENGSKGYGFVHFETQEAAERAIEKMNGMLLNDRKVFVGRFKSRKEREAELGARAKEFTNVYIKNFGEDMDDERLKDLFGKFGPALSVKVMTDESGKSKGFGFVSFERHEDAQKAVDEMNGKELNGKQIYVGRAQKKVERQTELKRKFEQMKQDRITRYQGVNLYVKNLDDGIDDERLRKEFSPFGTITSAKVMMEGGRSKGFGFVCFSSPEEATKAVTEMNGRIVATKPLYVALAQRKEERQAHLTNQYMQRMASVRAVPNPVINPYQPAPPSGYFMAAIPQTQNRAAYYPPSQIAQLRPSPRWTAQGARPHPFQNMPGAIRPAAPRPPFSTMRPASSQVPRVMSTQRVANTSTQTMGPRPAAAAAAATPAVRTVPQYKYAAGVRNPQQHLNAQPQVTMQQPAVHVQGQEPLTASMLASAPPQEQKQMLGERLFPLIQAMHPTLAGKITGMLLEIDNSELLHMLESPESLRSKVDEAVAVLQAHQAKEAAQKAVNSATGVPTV
T6 sequence (P51452 whole entry): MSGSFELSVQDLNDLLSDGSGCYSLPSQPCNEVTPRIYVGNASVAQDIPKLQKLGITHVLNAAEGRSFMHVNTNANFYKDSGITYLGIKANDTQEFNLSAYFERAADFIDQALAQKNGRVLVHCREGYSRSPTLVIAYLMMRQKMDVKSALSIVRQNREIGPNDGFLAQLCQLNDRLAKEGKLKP
Sequence of Protein Tat (P04608 whole entry): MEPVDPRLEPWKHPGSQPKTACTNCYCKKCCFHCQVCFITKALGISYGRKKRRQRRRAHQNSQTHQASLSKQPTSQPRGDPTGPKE
Sequence of Glyceraldehyde-3-phosphate dehydrogenase (P04406 whole entry): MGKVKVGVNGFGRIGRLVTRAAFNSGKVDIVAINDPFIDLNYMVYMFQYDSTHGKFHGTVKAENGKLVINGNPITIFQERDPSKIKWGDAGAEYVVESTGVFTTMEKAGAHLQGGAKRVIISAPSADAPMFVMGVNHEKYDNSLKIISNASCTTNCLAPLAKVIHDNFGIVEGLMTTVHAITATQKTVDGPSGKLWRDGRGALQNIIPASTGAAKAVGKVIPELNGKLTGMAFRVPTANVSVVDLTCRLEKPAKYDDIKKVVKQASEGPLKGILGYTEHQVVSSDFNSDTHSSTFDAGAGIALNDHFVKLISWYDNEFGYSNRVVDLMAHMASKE
Sequence of E3 ubiquitin-protein ligase Mdm2 (Q00987 whole entry): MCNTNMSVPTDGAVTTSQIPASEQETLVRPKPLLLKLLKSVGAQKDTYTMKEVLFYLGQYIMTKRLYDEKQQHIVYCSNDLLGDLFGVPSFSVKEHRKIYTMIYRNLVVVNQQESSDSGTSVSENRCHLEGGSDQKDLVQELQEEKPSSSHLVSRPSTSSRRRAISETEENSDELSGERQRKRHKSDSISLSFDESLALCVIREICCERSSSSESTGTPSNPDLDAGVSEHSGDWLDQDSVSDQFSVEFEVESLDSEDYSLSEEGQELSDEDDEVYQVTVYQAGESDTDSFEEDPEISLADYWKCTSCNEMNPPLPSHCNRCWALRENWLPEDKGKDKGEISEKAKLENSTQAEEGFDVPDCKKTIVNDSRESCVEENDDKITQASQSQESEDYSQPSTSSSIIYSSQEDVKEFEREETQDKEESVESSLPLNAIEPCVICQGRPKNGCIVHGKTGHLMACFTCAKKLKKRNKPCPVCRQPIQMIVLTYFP
Sequence of Delta-type opioid receptor (P41143 whole entry): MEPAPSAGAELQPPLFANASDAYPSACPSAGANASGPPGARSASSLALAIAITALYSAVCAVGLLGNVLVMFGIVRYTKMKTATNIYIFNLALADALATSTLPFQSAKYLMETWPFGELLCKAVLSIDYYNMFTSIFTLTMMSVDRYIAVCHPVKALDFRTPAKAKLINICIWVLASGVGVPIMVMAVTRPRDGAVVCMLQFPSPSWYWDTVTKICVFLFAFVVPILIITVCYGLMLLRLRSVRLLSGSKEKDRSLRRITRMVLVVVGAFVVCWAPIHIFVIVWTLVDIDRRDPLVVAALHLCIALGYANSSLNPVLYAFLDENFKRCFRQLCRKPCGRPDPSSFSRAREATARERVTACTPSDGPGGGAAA
Sequence of Mu-type opioid receptor (P35372 whole entry): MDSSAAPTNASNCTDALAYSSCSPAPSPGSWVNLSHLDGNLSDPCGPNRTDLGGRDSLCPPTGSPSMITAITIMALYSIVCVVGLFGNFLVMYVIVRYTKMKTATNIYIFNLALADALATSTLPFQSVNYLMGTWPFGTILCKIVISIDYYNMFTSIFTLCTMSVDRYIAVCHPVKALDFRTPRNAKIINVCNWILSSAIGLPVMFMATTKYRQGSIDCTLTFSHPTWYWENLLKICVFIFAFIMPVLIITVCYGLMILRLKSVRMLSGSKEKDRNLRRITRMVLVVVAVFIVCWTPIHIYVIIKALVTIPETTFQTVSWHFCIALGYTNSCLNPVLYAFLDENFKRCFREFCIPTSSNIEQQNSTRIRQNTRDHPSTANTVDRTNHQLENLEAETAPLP
Sequence of Paired box protein Pax-8 (Q06710 whole entry): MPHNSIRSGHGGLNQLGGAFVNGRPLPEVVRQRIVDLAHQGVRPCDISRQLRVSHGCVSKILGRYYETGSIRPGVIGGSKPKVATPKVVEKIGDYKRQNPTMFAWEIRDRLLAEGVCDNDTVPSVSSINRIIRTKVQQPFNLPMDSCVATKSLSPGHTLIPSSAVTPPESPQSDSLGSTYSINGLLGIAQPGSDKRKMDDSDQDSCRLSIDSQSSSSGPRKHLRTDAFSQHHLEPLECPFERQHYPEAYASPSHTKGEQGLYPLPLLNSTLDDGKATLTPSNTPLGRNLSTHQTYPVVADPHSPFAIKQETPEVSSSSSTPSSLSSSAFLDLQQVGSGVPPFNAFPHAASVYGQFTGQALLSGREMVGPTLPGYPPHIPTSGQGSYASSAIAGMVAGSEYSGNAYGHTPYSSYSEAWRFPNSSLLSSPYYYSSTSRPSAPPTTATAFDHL

COc1ccc(C[S+]([O-])/C(Cl)=C(/Cl)C(=O)Nc2ccc(OC)nc2)cc1 (stereo not drawn)
inactive: EC50 (Beta-galactosidase [2]) > 40 µM | EC50 (Beta-galactosidase [6]) > 31.5 µM | IC50 [8] 31.5 µM
8.26 µM: IC50 [7]
active: EC50 [1] 0.56 µM | IC50 [3] 1.65 µM | IC50 [4] 2.92 µM | IC50 [5] 5.22 µM

O=C(O)c1ccc(-c2ccc(/C=c3\sc4nc5ccccc5n4c3=O)o2)cc1
active: IC50 [9] 3.26 µM | IC50 [11] 8.6 µM | IC50 [12] 33.5 µM | IC50 [13] 6.21 µM | IC50 [14] 5.78 µM | IC50 [15] 6.59 µM
> 100 µM (not active): IC50 [10]

CC(C)c1ccc(OC(=O)c2cccc(S(=O)(=O)N3CCN(C)CC3)c2)cc1
active: IC50 [17] 6.93 µM | IC50 [18] 27.6 µM | IC50 [19] 15.7 µM | IC50 [20] 11.6 µM
inactive: IC50 [16] > 100 µM

COc1ccc(N(C(=O)CCl)C(C(=O)NCCc2ccccc2)c2nc(C)cs2)cc1Cl (stereo not drawn)
active: AC50 [21] 19.8 µM | AC50 [22] 8.54 µM | AC50 [23] 8.26 µM | AC50 [24] 32.7 µM

Cc1ccc(S(=O)(=O)N2CCc3ccc(C(=O)NCCN(Cc4ccccc4)C(C)C)cc3C2)cc1
active: IC50 (Mu-type opioid receptor) 2.89 µM
inactive: IC50 [25] 10.2 µM | IC50 [26] > 32 µM | IC50 [27] > 32 µM

CC1OC(CC(=O)O)CC2=C1C(=O)c1c(O)cccc1C2=O (stereo not drawn) [NANAOMYCIN]
inactive: IC50 [28] > 66.6 µM | IC50 (Beta-galactosidase [29]) > 66.6 µM
active: AC50 [30] 0.262 µM | CC50 (Vero) 0.72 µM | IC50 (Genome polyprotein) 5.04 µM | CC50 [31] 5.86 µM | IC50 [32] 76.4 µM | AC50 (Paired box protein Pax-8) 0.469 µM | AC50 [33] 0.37 µM | AC50 [34] 2.5 µM | AC50 [35] 0.485 µM | AC50 [36] 3.45 µM | AC50 [37] 0.779 µM | IC50 (Protein Tat) > 100 µM | CC50 [38] 0.69 µM
